The text below walks through data of patent US20260364030A1, “NOVEL SELECTIVE INHIBITORS OF LYSYL OXIDASES” (Syntara Limited, priority 2022, published 2026).

Assay [1] deals with systemic LOX. Conditions: mouse, in vivo; cited from earlier work.
In assay [2] the test system is ovarian cancer. Conditions: ovarian cancer genetically engineered mouse models; cited from earlier work.
Assay [3] deals with desmoplastic tumour. Conditions: mouse, in vivo; cited from earlier work.
Assay [4] has as its target T1, LOXL1 (Homo sapiens, UniProt Q08397).
T1 sequence (Q08397 96-574): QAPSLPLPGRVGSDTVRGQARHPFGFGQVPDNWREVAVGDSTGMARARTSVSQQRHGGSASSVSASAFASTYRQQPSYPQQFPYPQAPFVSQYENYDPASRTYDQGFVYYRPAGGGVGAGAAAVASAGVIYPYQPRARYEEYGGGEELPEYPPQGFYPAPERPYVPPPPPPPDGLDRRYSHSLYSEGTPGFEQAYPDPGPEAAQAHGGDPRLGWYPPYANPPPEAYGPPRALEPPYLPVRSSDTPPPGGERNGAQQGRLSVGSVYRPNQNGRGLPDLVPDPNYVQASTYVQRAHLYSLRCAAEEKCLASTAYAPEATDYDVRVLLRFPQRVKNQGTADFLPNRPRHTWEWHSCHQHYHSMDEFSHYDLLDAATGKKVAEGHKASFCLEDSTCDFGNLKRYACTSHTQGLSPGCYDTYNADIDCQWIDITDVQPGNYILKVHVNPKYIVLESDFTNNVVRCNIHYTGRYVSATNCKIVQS
Kind of assay: Time-dependent inhibition of LOXL1, Amplex Red oxidation assay. In kind it is biochemical. Conditions: for IC50: 37 °C. On the procedure: The time dependent inhibitory effects of the Compound 1 of the present invention were tested against the given LOXL1 preparation and LOXL2 preparation using a method based on the detection of hydrogen peroxide with an Amplex Red oxidation assay [Zhou et al. 1997]. The assay was developed for use in either 384 or 96 well format. Briefly, in a standard black, clear bottom 384 well plate assay 25 µL of a dilution of any of the isoenzymes and orthologues in 1.2 M urea, 50 mM sodium borate buffer (pH 8.2) were added into each well in the presence of […] and 0.5 mM pargyline (to inhibit SSAO and MAO-B and MAO-A, respectively; not necessary if the enzyme is from a recombinant or purified form). Test compound (Compound 1) was dissolved in DMSO and tested in a Concentration Response Curve (CRC) with 11 data points, typically in the micromolar or nanomolar range after incubation with the enzyme for different time points at 37 °C. 25 μL of a reaction mixture containing twice the KM concentration of putrescine (Sigma Aldrich, e.g. 20 mM for LOXL1 or 10 mM for LOXL2), 120 µM Amplex Red (Thermo Fisher Scientific) and 1.5 U/mL horseradish peroxidase (Sigma Aldrich) prepared in 1.2 M urea, 50 mM sodium borate buffer (pH 8.2) were then added to the corresponding wells. The fluorescence (RFU) was read every 2.5 min for 30 min at 37 °C, excitation 544 nm and emission 590 nm (Optima; BMG labtech). The slope/min of the kinetics for each well was calculated using MARS data analysis software (BMG labtech) and this value was used to deduce the IC50 value (Dotmatics).

Regarding `N#CCCN` [BAPN, β-aminopropionitrile, reference compound], the Metastasis and survival entry in assay [1] is “reducing metastasis and increasing survival”. Also, the “Survival and lung metastasis” value in assay [2] is “significantly increased survival and decreased lung metastasis”. Besides, the “Metastatic load and survival” value in assay [3] was “lower metastatic load and increased survival”.

As a reminder, the IC50 is the point on the concentration scale where inhibition reaches its midpoint. For the compound `NC/C(=C\F)CS(=O)(=O)c1ccccc1` [Compound 1, (E)-3-fluoro-2-((phenylsulfonyl)methyl)prop-2-en-1-amine], the concentration for half-maximal inhibition (IC50) in assay [4] (30′ incubation) is 9470 nM; in assay [4] (2 h incubation), 1700 nM; in assay [4] (4 h incubation) it was 920 nM. In addition, the “Time dependent LOXL1 inhibition” value in assay [4] (apparent potency increasing with time) is “time dependent LOXL1 and LOXL2 inhibition”.
